# Source: ChEMBL document CHEMBL4251590, “Novel vanillin derivatives: Synthesis, anti-oxidant, DNA and cellular protection properties” (Eur J Med Chem, 2018)
# The source made the active and inactive calls. No cut-off for these calls is given here.
# Assays:
# [1] = Antioxidant activity assessed as DPPH radical scavenging activity after 30 mins; format: functional
# [2] = Antioxidant activity assessed as ferric ion reducing activity by measuring trolox equivalents using Fe3+-TPTZ after 30 mins by FRAP assay; format: functional
# [3] = Antioxidant activity assessed as trolox equivalents of AAPH-induced radical scavenging activity pretreated for 30 mins followed by […] challenge measured every 2 mins for 2 hrs by ORAC-FL assay; format: functional
# DNA [4] = assay: Antioxidant activity assessed as protection against AAPH-induced DNA damage in Escherichia coli plasmid pbr322 DNA after 1 hr by agarose gel electrophoresis method; format: functional
# [5] = Antioxidant activity assessed as DPPH radical scavenging activity up to 250 uM after 30 mins; format: functional
# SH-SY5Y [6] = assay: Cytoprotective activity against H2O2-induced oxidative damage in human SH-SY5Y cells at 5 uM preincubated for 24 hrs followed by H2O2 addition and measured after 24 hrs by MTT assay; format: functional
# SH-SY5Y [7] = assay: Cytoprotective activity against H2O2-induced oxidative damage in human SH-SY5Y cells at 200 uM preincubated for 24 hrs followed by H2O2 addition and measured after 24 hrs by MTT assay; format: functional
# SH-SY5Y [8] = assay: Cytotoxicity against human SH-SY5Y cells up to 1 mM incubated for 24 hrs by MTT assay; format: cell-based
# SH-SY5Y [9] = assay: Cytoprotective activity against H2O2-induced oxidative damage in human SH-SY5Y cells up to 800 uM preincubated for 24 hrs followed by H2O2 addition and measured after 24 hrs by MTT assay; format: functional, cell-based
# DNA [10] = assay: Antioxidant activity assessed as protection against AAPH-induced DNA damage in Escherichia coli plasmid pbr322 DNA assessed as DNA intensity level at 4 uM after 1 hr by agarose gel electrophoresis method (reference value: 0%); format: functional
# SH-SY5Y [11] = assay: Cytoprotective activity against H2O2-induced oxidative damage in human SH-SY5Y cells at 0.1 uM preincubated for 24 hrs followed by H2O2 addition and measured after 24 hrs by MTT assay; format: functional
# SH-SY5Y [12] = assay: Cytoprotective activity against H2O2-induced oxidative damage in human SH-SY5Y cells at 10 uM preincubated for 24 hrs followed by H2O2 addition and measured after 24 hrs by MTT assay; format: functional
# SH-SY5Y [13] = assay: Cytotoxicity against human SH-SY5Y cells up to 20 uM incubated for 24 hrs by MTT assay; format: cell-based
# DNA [14] = assay: Antioxidant activity assessed as protection against AAPH-induced DNA damage in Escherichia coli plasmid pbr322 DNA assessed as DNA intensity level at 2.6 uM after 1 hr by agarose gel electrophoresis method (reference value: 0%); format: functional
# DNA [15] = assay: Antioxidant activity assessed as protection against AAPH-induced DNA damage in Escherichia coli plasmid pbr322 DNA assessed as DNA intensity level at 1 uM after 1 hr by agarose gel electrophoresis method (reference value: 0%); format: functional
# DNA [16] = assay: Antioxidant activity assessed as protection against AAPH-induced DNA damage in Escherichia coli plasmid pbr322 DNA assessed as DNA intensity level at 0.65 uM after 1 hr by agarose gel electrophoresis method (reference value: 0%); format: functional
# DNA [17] = assay: Antioxidant activity assessed as protection against AAPH-induced DNA damage in Escherichia coli plasmid pbr322 DNA assessed as DNA intensity level at 0.33 uM after 1 hr by agarose gel electrophoresis method (reference value: 0%); format: functional
# DNA [18] = assay: Antioxidant activity assessed as protection against AAPH-induced DNA damage in Escherichia coli plasmid pbr322 DNA assessed as DNA intensity level at 0.11 uM after 1 hr by agarose gel electrophoresis method (reference value: 0%); format: functional
SMILES,IC50 [1] [µM],Activity [2] [equiv],Activity [3] [equiv],IC50 (DNA [4]) [µM],other results
COc1cc(C=O)cc(OC)c1O [SYRINGALDEHYDE],1150,0.93,1.45,9.5,–
COc1cccc(CN(Cc2cccc(OC)c2)c2ccc(N(Cc3cccc(OC)c3)Cc3cccc(OC)c3)cc2)c1,–,2.54,–,13.6,Activity [5]: inactive
Oc1ccc(CN(Cc2ccc(O)cc2)c2ccc(N(Cc3ccc(O)cc3)Cc3ccc(O)cc3)cc2)cc1,98,2.78,–,–,–
COc1cc(CN(CCCN)Cc2ccc(O)c(OC)c2)ccc1O,–,0.28,4.08,61.5,Activity [5]: inactive
COc1cc(CN(CCCCO)Cc2ccc(O)c(OC)c2)ccc1O,21,0.62,–,–,–
COc1cc(CN(Cc2ccccc2)Cc2ccc(O)c(OC)c2)ccc1O,29.7,0.55,5.34,3.8,–
COc1cc(CN(CCCO)Cc2ccc(O)c(OC)c2)ccc1O,13.7,0.68,6.02,3.6,Activity (SH-SY5Y [6]): 6%; Activity (SH-SY5Y [7]): 20%; Activity (SH-SY5Y [8]): Non-Toxic
COc1cc(C=O)ccc1O [VANILLIN],4050,0.11,2.19,5.6,Activity (SH-SY5Y [9]): inactive
COc1cc(CN(Cc2ccc(O)c(OC)c2)[C@H]2CC[C@H](N(Cc3ccc(O)c(OC)c3)Cc3ccc(O)c(OC)c3)CC2)ccc1O,138,0.56,–,–,–
c1ccc(CN(Cc2ccccc2)c2ccc(N(Cc3ccccc3)Cc3ccccc3)cc2)cc1,144,2.81,–,–,–
COc1cc(CN(CCCN(Cc2ccc(O)c(OC)c2)Cc2ccc(O)c(OC)c2)Cc2ccc(O)c(OC)c2)ccc1O,–,0.74,7.54,13.9,Activity [5]: inactive
COc1cc(CN(CCCCCCO)Cc2ccc(O)c(OC)c2)ccc1O,22.2,0.64,–,–,–
COc1cc(CNCc2ccccc2)ccc1O,107,0.16,3.16,4.1,–
COc1cc(CN(Cc2ccc(O)c(OC)c2)c2ccc(N(Cc3ccc(O)c(OC)c3)Cc3ccc(O)c(OC)c3)cc2)ccc1O,5.8,5.29,20.4,0.6,Activity (DNA [10]): 96.1%; Activity (SH-SY5Y [11]): 8%; Activity (SH-SY5Y [12]): 30%; Activity (SH-SY5Y [13]): Non-Toxic; Activity (DNA [14]): 90.5%; Activity (DNA [15]): 81.9%; Activity (DNA [16]): 59.7%; Activity (DNA [17]): 25.1%; Activity (DNA [18]): 15.8%
COc1cc(/C=N/Cc2ccccc2)ccc1O,248,0.06,1.85,3.8,–
COc1cc(CN(CCCCCO)Cc2ccc(O)c(OC)c2)ccc1O,24,0.63,–,–,–
COc1cc(CN(CCO)Cc2ccc(O)c(OC)c2)ccc1O,12.8,0.62,–,–,–
COc1cc(CN(Cc2ccccc2)Cc2cc(OC)c(O)c(OC)c2)cc(OC)c1O,15.4,1.11,–,–,–
CCCCN(Cc1ccc(O)c(OC)c1)Cc1ccc(O)c(OC)c1,21.9,0.6,–,–,–
COc1cc(CN(CCCO)Cc2cc(OC)c(O)c(OC)c2)cc(OC)c1O,12.3,1.14,–,–,–
